Here are results for 4 compounds from US6468782B1, “Methods of preserving prokaryotic cells and compositions obtained thereby” (priority 1996, dated 2002).

In one data set the test system is E. coli 9484. As to the kind of experiment: Viable cell recovery (plate assay, CFU) of trehalose-induced E. coli Q-T4 dried with different excipients and stored at 37° C. It is filed as cell-based. The procedure:
Viability was determined immediately after completion and at various times during storage at 37° C. using a plate assay. For the plate assay, serial 10-fold dilutions of cells were set up by using minimal medium minus a carbon source as a sterile diluent.
Thirty μl of the cell suspension from the sixth dilution tube was added to each of 3 LB (Luria-Bertuni) plates, using a sterile glass spreader to spread the culture over the entire surface of the plate. The plates were incubated overnight at 37° C., and the colonies counted.
E. coli strain 9894 was inoculated in 100 ml batch cultures of minimal medium related to M9 but with high (0.5M) salt content as described in Example 2. Cells were grown for 22 hours at 37° C. in a shaking incubator (early stationary phase). Samples of cultures were removed for trehalose determination (3×1 ml) and protein estimation by the Bradford assay (3×10 ml; Bio-Rad). Trehalose concentration was expressed as μmol (mg protein)^−1.
Two 30 ml aliquots from each flask were harvested by centrifugation at 10,000 rpm for 10 minutes. Cell pellets were resuspended in 8 ml of 25-45% sugar, 0.1% CMC (sodium carboxymethyl cellulose; Blanose 7HF; Aqualon). The suspensions were then pooled to a total volume of 16 ml with a typical cell density of 4-8×10^9 CFU/ml and 300 μl aliquots dispensed into 3 ml pharmaceutical vials.
Bacteria were dried under vacuum without freezing using the following protocol: vacuum, 30 mT; initial shelf temperature 40° C. for 16 hours, followed by ramping to 80° C. at a rate of 2.5° C./min in increments of 2° C. with a holding time of 12 minutes per increment. Foaming occurred between 60-120 minutes of initial drying.
Viability was determined immediately before and after the completion of the drying procedure and at various times during storage at 37° C. using a plate assay as described in Example 2. The residual moisture content and the glass transition temperature were also determined.

Another data set concerns E. coli. As to the kind of experiment: Intracellular trehalose production in E. coli under osmotic shock with different salts. The format is cell-based. The procedure: E. coli NCIMB strain 9484 was cultured in Evans medium (pH 7.0; Table 1) containing one of a variety of agents for increasing osmotic pressure. After overnight incubation at 37° C. in initial Evans medium, a 4 ml culture of E. coli grown in Evans medium under nitrogen limitation was used to inoculate a 200 ml culture of Evans medium osmotic shock.
Intracellular trehalose concentration was measured as described below at various times after the initiation of osmotic shock.
Intracellular concentration of trehalose was determined using high pressure liquid chromatography (HPLC) as follows. Trehalose standards were prepared by first making 10 mM trehalose in 70% ethanol, followed by 10-fold serial dilution from 10 mM to 10 nM using 70% ethanol as diluent. […]
Cell samples were prepared for analysis by disrupting the cell wall by sonication (any other method such as mortar and pestle, osmotic lysis, beads can be used) coupled with the preferential solubilization of trehalose in 70% ethanol, followed by removing triglycerides by chloroform extraction. […] The pellet volume was determined by measuring the relative increase in the initial volume following resuspension of the cells. […]
Quantitation of trehalose was achieved by HPLC (Beckman Instruments), using a Dionex CarboPac PA 100 analytical column, with a Dionex ED40 pulsed amperometric electrochemical detector. […]

Like-named read-outs stand apart in the source and are kept apart here.

As for `OC[C@H]1O[C@H](O[C@H]2O[C@H](CO)[C@@H](O)[C@H](O)[C@H]2O)[C@H](O)[C@@H](O)[C@@H]1O` [Trehalose, α-D-glucopyranosyl-α-D-glucopyranoside], the “% Viable Cell Recovery after storage at 37° C., Week 3” value (from here on “% Viable Cell Recovery … Week 3”) in the data set on E. coli 9484 (3 weeks storage at 37° C., 25-45% sugar, 0.1% CMC) was determined as 52%. Further, the “% Viable Cell Recovery after storage at 37° C., Week 6” value (from here on “% Viable Cell Recovery … Week 6”) in the data set with E. coli 9484 (6 weeks storage at 37° C., 25-45% sugar, 0.1% CMC) was 45%. In addition, the “% Viable Cell Recovery after storage at 37° C., Day 0” value (from here on “% Viable Cell Recovery … Day 0”) with E. coli 9484 (immediately after completion of Q-T4 drying, 25-45% sugar, 0.1% CMC) worked out at 36%.
Palatinit: in the data set with E. coli 9484, the “% Viable Cell Recovery … Day 0” value worked out at 49%; the “% Viable Cell Recovery … Week 3” value is given as 49%; the “% Viable Cell Recovery … Week 6” value is 51%.
For `OC[C@@H](O)[C@@H](O[C@@H]1O[C@H](CO)[C@H](O)[C@H](O)[C@H]1O)[C@H](O)[C@@H](O)CO` [Lactitol, 4-O-β-D-galactopyranosyl-D-glucitol], the “% Viable Cell Recovery … Day 0” value in the data set on E. coli 9484 (E. coli, 0 day) is recorded as 42%. The “% Viable Cell Recovery … Week 3” value with E. coli 9484 (E. coli, 3 weeks) came to 36%. The “% Viable Cell Recovery … Week 6” value with E. coli 9484 (E. coli, 6 weeks) is 34%.
Consider `N.N.O=S(=O)(O)O` [ammonium sulfate], for which the “amount of intracellular trehalose concentration stimulated, relative to NaCl, CaCl2 or KCl” value in the data set with E. coli is recorded as “about half”.
